We go through 14 compounds from patent US20260347353A1, “INDOLIZINE DERIVATIVES FOR TREATING CANCER” (Antares Therapeutics, Inc., priority 2022, published 2026).

Molecules are shown by their SMILES. Some results are limits rather than exact numbers.

Assay [1] deals with T1, p53 Y220C mutant protein (amino acid residues 94-293) (Homo sapiens, UniProt P04637, Y220C).
T1 construct: p53 Y220C mutant protein (amino acid residues 94-293)
Kind of assay: Surface Plasmon Resonance (SPR) assay, p53 Y220C Kd_kinetic. The settings on record: multi-cycle kinetics, 16 or 20 °C, pH 7.5, 1:1 binding model. The protocol:
SPR experiments are performed on a Biacore 8K instrument. […] Compounds are 2-fold, 7-point serial diluted; the top concentration varies depending on the potency. Compound binding affinities are measured in the multi-cycle kinetics mode, at 30 μL/min flow rate with 60 seconds association time and 120 seconds dissociation time. The running buffer contains 50 mM Tris, pH 7.5, 100 mM NaCl, 1 mM DTT, 0.01% Brij35, 0.05% Tween-20 and 1% DMSO. The assay temperature is maintained at 16 or 20 °C and data are fit into the 1:1 binding model using the Biacore Insight Evaluation software.

The next assay has as its target p53 Y220C (Homo sapiens, UniProt P04637, Y220C). Kind of assay: Luciferase Reporter Assay, p53 Y220C (NCIH1299 cells with inducible p53 Y220C and p53 response element-luciferase). The class given is cell-based. Particulars: 6 hour compound treatment, read-out: Luc P53 Y220C AC50. The protocol: Luciferase reporter (Luc) driven by p53 response element (LTV-p53-Luc (SKU #: LTLR007); G&P Biosciences) and inducible p53 Y220C construct (Tet-One inducible expression system; Takara) were stably expressed in NCIH1299 cells by lentiviral transduction. The cells were then used for p53 reporter assay. 5,000 cells were seeded in each well of 384 plate and cultured in 0.5 ug/mL doxycycline (D3072; Sigma) containing medium for 24 hours before compound treatment. After 6 hour of compound treatment, equal volume of One-Glo reagent (E6110; Promega) was added to each well and the plate was incubated for 5 minutes with shaking at room temperature. The luciferase activity was immediately measured with PheraStar microplate reader. Luciferase activity was stimulated by 10 uM of a tool compound as positive control and AC50 was calculated.

Another assay concerns NUGC3 cells (p53 Y220C). As to the kind of experiment: Cell Proliferation Assay (CellTiter-Glo), NUGC3 p53 Y220C. The class given is cell-based. The settings on record: Homo sapiens, NUGC-3, 120 h, 5 days, read-out: CTG NUGC3 P53 Y220C IC50. As for the experimental part: (§1) Inducible p53 Y220C and R273H constructs (Tet-One inducible expression system; Takara) were stably expressed in NCIH1299 cells by lentiviral transduction. NUGC3, A549, BxPC3, T3M4, HuH7, HCC2935, MFE296, NCIH1299, NCIH1299-inducible p53 Y220C, and NCIH1299-inducible p53 R273H cell lines were used for cell proliferation assay. 250-500 cells were seeded in each well of 384 plate and then compounds were dispensed into each well using Echo or Tecan. After 5 days of incubation, equal volume of CellTiter-Glo reagent (G7570; Promega) was added into each well and the plate was incubated at room temperature for 10 minutes with shaking. The luminescent signal was measured by PheraStar microplate reader and IC50 was calculated.

For assay [2], the system named is NCIH1299-inducible p53 Y220C cells. As to the kind of experiment: Cell Proliferation Assay (CellTiter-Glo), NCIH1299-inducible p53 Y220C. The class given is cell-based. Particulars: Homo sapiens, NCI-H1299, 120 h, 5 days, read-out: CTG H1299 P53 Y220C IC50. As for the experimental part: as §1

T1 sequence (P04637 94-293, stated change not applied): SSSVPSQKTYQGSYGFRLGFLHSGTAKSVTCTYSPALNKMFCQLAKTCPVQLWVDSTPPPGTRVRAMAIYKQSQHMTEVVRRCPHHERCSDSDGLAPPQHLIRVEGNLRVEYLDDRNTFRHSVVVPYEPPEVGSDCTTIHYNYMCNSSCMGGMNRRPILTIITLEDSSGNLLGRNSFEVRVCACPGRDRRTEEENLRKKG

Regarding `CN1CC[C@@H](Nc2cccn3c(SC(F)(F)F)c(-c4noc(CNC(=O)[C@@H]5COCCO5)n4)cc23)[C@@H](F)C1` [Example 11, (2S)—N-{[3-(8-{[(3S,4R)-3-fluoro-1-methylpiperidin-4-yl]amino}-3-[(trifluoromethyl)sulfanyl]indolizin-2-yl)-1,2,4-oxadiazol-5-yl]methyl}-1,4-dioxane-2-carboxamide], the equilibrium dissociation constant (Kd) in assay [1] was less than 10 nM. Further, the AC50 at p53 Y220C is 750 to 1500 nM. Also, the IC50 (with NUGC3 cells (p53 Y220C); in assay [2]) was 750 to 1500 nM throughout.

`CN1CC[C@@H](Nc2cccn3c(SC(F)(F)F)c(-c4noc(CNC(=O)c5cnc(N(C)C)o5)n4)cc23)[C@@H](F)C1` [Example 12, 2-(dimethylamino)-N-{[3-(8-{[(3S,4R)-3-fluoro-1-methylpiperidin-4-yl]amino}-3-[(trifluoromethyl)sulfanyl]indolizin-2-yl)-1,2,4-oxadiazol-5-yl]methyl}-1,3-oxazole-5-carboxamide]: the Kd in assay [1] was less than 10 nM. For the same compound, on p53 Y220C, the AC50 is less than 750 nM. The concentration for half-maximal inhibition (IC50) (in the assay with NUGC3 cells (p53 Y220C); in assay [2]) was less than 750 nM each time.

On to `CN1CC[C@@H](Nc2cccn3c(SC(F)(F)F)c(-c4noc(CNC(=O)c5cnc(C(C)(C)C)o5)n4)cc23)[C@@H](F)C1` [Example 13, 2-tert-butyl-N-{[3-(8-{[(3S,4R)-3-fluoro-1-methylpiperidin-4-yl]amino}-3-[(trifluoromethyl)sulfanyl]indolizin-2-yl)-1,2,4-oxadiazol-5-yl]methyl}-1,3-oxazole-5-carboxamide], for which the Kd in assay [1] was less than 10 nM. Moreover, on p53 Y220C, the AC50 was less than 750 nM. In addition, the IC50 (in the assay with NUGC3 cells (p53 Y220C); in assay [2]) was less than 750 nM each time.

In the case of `Cc1c(C(=O)NCc2nc(-c3cc4c(N[C@@H]5CCN(C)C[C@@H]5F)cccn4c3SC(F)(F)F)no2)sc2nc[nH]c(=O)c12` [Example 14, N-{[3-(8-{[(3S,4R)-3-fluoro-1-methylpiperidin-4-yl]amino}-3-[(trifluoromethyl)sulfanyl]indolizin-2-yl)-1,2,4-oxadiazol-5-yl]methyl}-5-methyl-4-oxo-3H-thieno[2,3-d]pyrimidine-6-carboxamide], the Kd in assay [1] was in the range of 10 to 100 nM. Moreover, the AC50 at p53 Y220C lay within 1500 to 3000 nM. For the same compound, the concentration for half-maximal inhibition (IC50) (with NUGC3 cells (p53 Y220C); in assay [2]) was 750 to 1500 nM throughout.

As to `CN1CC[C@@H](Nc2cccn3c(SC(F)(F)F)c(-c4noc(CNC(=O)c5ccc6c(c5)C(C)(C)C(=O)N6)n4)cc23)[C@@H](F)C1` [Example 15, N-{[3-(8-{[(3S,4R)-3-fluoro-1-methylpiperidin-4-yl]amino}-3-[(trifluoromethyl)sulfanyl]indolizin-2-yl)-1,2,4-oxadiazol-5-yl]methyl}-3,3-dimethyl-2-oxo-1H-indole-5-carboxamide], the Kd in assay [1] was less than 10 nM. The AC50 at p53 Y220C is less than 750 nM. For the same compound, the IC50 (in the assay with NUGC3 cells (p53 Y220C); in assay [2]) was less than 750 nM in each case.

With `CN1CC[C@@H](Nc2cccn3c(SC(F)(F)F)c(-c4noc(CNC(=O)c5ccc6c(c5)NC(=O)C6)n4)cc23)[C@@H](F)C1` [Example 16, N-{[3-(8-{[(3S,4R)-3-fluoro-1-methylpiperidin-4-yl]amino}-3-[(trifluoromethyl)sulfanyl]indolizin-2-yl)-1,2,4-oxadiazol-5-yl]methyl}-2-oxo-1,3-dihydroindole-6-carboxamide], the Kd in assay [1] is less than 10 nM. At p53 Y220C, the AC50 lay in the range of 750 to 1500 nM. The IC50 in the assay on NUGC3 cells (p53 Y220C) was less than 750 nM; in assay [2], 750 to 1500 nM.

`CN1CC[C@@H](Nc2cccn3c(SC(F)(F)F)c(-c4noc(CNC(=O)c5cccc6c5NC(=O)C6)n4)cc23)[C@@H](F)C1` [Example 17, N-{[3-(8-{[(3S,4R)-3-fluoro-1-methylpiperidin-4-yl]amino}-3-[(trifluoromethyl)sulfanyl]indolizin-2-yl)-1,2,4-oxadiazol-5-yl]methyl}-2-oxo-1,3-dihydroindole-7-carboxamide]: in assay [1], the Kd is less than 10 nM. Moreover, at p53 Y220C, the AC50 was less than 750 nM. The IC50 in the assay on NUGC3 cells (p53 Y220C) was less than 750 nM; in assay [2] it was 750 to 1500 nM.

Regarding `CN1CC[C@@H](Nc2cccn3c(SC(F)(F)F)c(-c4noc(CNC(=O)c5ccc6c(c5)CC(=O)N6)n4)cc23)[C@@H](F)C1` [Example 18, N-{[3-(8-{[(3S,4R)-3-fluoro-1-methylpiperidin-4-yl]amino}-3-[(trifluoromethyl)sulfanyl]indolizin-2-yl)-1,2,4-oxadiazol-5-yl]methyl}-2-oxo-1,3-dihydroindole-5-carboxamide], in assay [1], the Kd is less than 10 nM. Further, at p53 Y220C, the AC50 is 750 to 1500 nM. Besides, the 50% inhibitory concentration (IC50) in the assay with NUGC3 cells (p53 Y220C) was less than 750 nM; in assay [2], 750 to 1500 nM.

In assay [1], `CN1CC[C@@H](Nc2cccn3c(SC(F)(F)F)c(-c4noc(CNC(=O)c5ccc6[nH]cc(C#N)c6c5)n4)cc23)[C@@H](F)C1` [Example 19, 3-cyano-N-{[3-(8-{[(3S,4R)-3-fluoro-1-methylpiperidin-4-yl]amino}-3-[(trifluoromethyl)sulfanyl]indolizin-2-yl)-1,2,4-oxadiazol-5-yl]methyl}-1H-indole-5-carboxamide] had a Kd of 10 to 100 nM. Also, the half-maximal activity concentration (AC50) on p53 Y220C was 750 to 1500 nM. Also, the IC50 (in the assay with NUGC3 cells (p53 Y220C); in assay [2]) was less than 750 nM throughout.

With `CN1CC[C@@H](Nc2cccn3c(SC(F)(F)F)c(-c4noc(CNC(=O)c5csc(N6CCOCC6)n5)n4)cc23)[C@@H](F)C1` [Example 20, N-{[3-(8-{[(3S,4R)-3-fluoro-1-methylpiperidin-4-yl]amino}-3-[(trifluoromethyl)sulfanyl]indolizin-2-yl)-1,2,4-oxadiazol-5-yl]methyl}-2-(morpholin-4-yl)-1,3-thiazole-4-carboxamide], the Kd in assay [1] is less than 10 nM. In addition, the AC50 on p53 Y220C is less than 750 nM. The IC50 (in the assay with NUGC3 cells (p53 Y220C); in assay [2]) was less than 750 nM throughout.

In the case of `COc1ccc2[nH]nc(C(=O)NCc3nc(-c4cc5c(N[C@@H]6CCN(C)C[C@@H]6F)cccn5c4SC(F)(F)F)no3)c2c1` [Example 21, N-{[3-(8-{[(3S,4R)-3-fluoro-1-methylpiperidin-4-yl]amino}-3-[(trifluoromethyl)sulfanyl]indolizin-2-yl)-1,2,4-oxadiazol-5-yl]methyl}-5-methoxy-1H-indazole-3-carboxamide], the dissociation constant (Kd) in assay [1] lay in the range of 100 to 1000 nM. Further, at p53 Y220C, the AC50 was in the range of 1500 to 3000 nM. The IC50 (in the assay on NUGC3 cells (p53 Y220C); in assay [2]) was 1500 to 3000 nM in each case.

In turn, `CN1CC[C@@H](Nc2cccn3c(SC(F)(F)F)c(-c4noc(CNC(=O)c5ccc6c(c5)NC(=O)CN6C)n4)cc23)[C@@H](F)C1` [Example 23, N-{[3-(8-{[(3S,4R)-3-fluoro-1-methylpiperidin-4-yl]amino}-3-[(trifluoromethyl)sulfanyl]indolizin-2-yl)-1,2,4-oxadiazol-5-yl]methyl}-1-methyl-3-oxo-2,4-dihydroquinoxaline-6-carboxamide] yielded a Kd in assay [1] of less than 10 nM. In addition, the AC50 at p53 Y220C was less than 750 nM. Further, the IC50 (in the assay with NUGC3 cells (p53 Y220C); in assay [2]) was less than 750 nM each time.

In assay [1], `CN1CC[C@@H](Nc2cccn3c(SC(F)(F)F)c(-c4noc(CNC(=O)C5(O)CC5)n4)cc23)[C@@H](F)C1` [Example 24, N-{[3-(8-{[(3S,4R)-3-fluoro-1-methylpiperidin-4-yl]amino}-3-[(trifluoromethyl)sulfanyl]indolizin-2-yl)-1,2,4-oxadiazol-5-yl]methyl}-1-hydroxycyclopropane-1-carboxamide] returned a Kd of less than 10 nM. For the same compound, the AC50 on p53 Y220C is less than 750 nM. Besides, the IC50 (with NUGC3 cells (p53 Y220C); in assay [2]) was 750 to 1500 nM each time.

In assay [1], `CN1CC[C@@H](Nc2cccn3c(SC(F)(F)F)c(-c4noc(CNC(=O)C5COC5)n4)cc23)[C@@H](F)C1` [Example 25, N-{[3-(8-{[(3S,4R)-3-fluoro-1-methylpiperidin-4-yl]amino}-3-[(trifluoromethyl)sulfanyl]indolizin-2-yl)-1,2,4-oxadiazol-5-yl]methyl}oxetane-3-carboxamide] registered a Kd of less than 10 nM. On p53 Y220C, the AC50 was in the range of 1500 to 3000 nM. Further, the IC50 (in the assay on NUGC3 cells (p53 Y220C); in assay [2]) was 1500 to 3000 nM each time.
